According to US9370189B2, “Controlling Pseudomonas aeruginosa persister cells with GM-CSF” (priority 2012, dated 2016):

Assays:
Format in all cases: cell-based, Pseudomonas aeruginosa
P. aeruginosa PAO1 = experiment: Effect of GM-CSF on planktonic PAO1 total population and persister cells at stationary phase, co-treatment with antibiotic
P. aeruginosa PDO300 = experiment: Effect of GM-CSF on planktonic PDO300 cells (total viable cells and persisters) at exponential phase, alone and with antibiotic; conditions: for % change in avg. CFU/mL by GM-CSF (compared to GM-CSF free control) With 50 μg/mL Cip / % change in avg. CFU/mL by GM-CSF (compared to GM-CSF free control) With 50 μg/mL Tet / % change in avg. CFU/mL by GM-CSF (compared to GM-CSF free control) With 50 μg/mL Tob / % change in avg. CFU/mL by GM-CSF (compared to GM-CSF free control) With 200 μg/mL Gen: PDO300 exponential phase, 0.17 pM GM-CSF; for % change in avg. CFU/ml after adding factor + CIP / % change in avg. CFU/ml after adding factor + TET / % change in avg. CFU/ml after adding factor + TOB / % change in avg. CFU/ml after adding factor + GEN / average CFU/ml of persisters reduced by / average CFU/ml of total viable cells reduced by: planktonic PDO300; for % change in avg. CFU/ml after adding factor + CIP: 2.43 pg/mL GM-CSF with 50 μg/mL ciprofloxacin; for % change in avg. CFU/ml after adding factor + TET: 2.43 pg/mL GM-CSF with 50 μg/mL tetracycline; for % change in avg. CFU/ml after adding factor + TOB: 2.43 pg/mL GM-CSF with 50 μg/mL tobramycin; for % change in avg. CFU/ml after adding factor + GEN: 2.43 pg/mL GM-CSF with 200 μg/ml gentamicin; for average CFU/ml of persisters reduced by / average CFU/ml of total viable cells reduced by: reduction
Protocol: This Example describes the treatment of planktonic P. aeruginosa PAO1, PDO300 and Escherichia coli K12, with GM-CSF introduced directly or together with an antibiotic to test the synergy. All experiments were conducted with cells harvested from exponential phase subcultures with an optical density at 600 nm (OD600) of 0.3 to 0.4.
In brief, after preparing an overnight culture of the tested strain in 25 ml LB medium, a subculture was prepared with an OD600 of 0.01 in 50 mL LB medium. The subculture was incubated at 37° C. with shaking at 200 rpm for 3-4 h, till an OD600 of 0.3 to 0.4 was reached. The exponential phase subculture was then divided equally into two centrifuge tubes, each containing 25 mL of the subculture. The subcultures were washed twice with 0.85% NaCl buffer by vortexing and then centrifuging at 4° C., 8000 rpm for 10 min each time. The washed subcultures/cells were resuspended in 25 mL 0.85% NaCl buffer and vortexed gently for 1 min. One of the tubes of subculture was selected for isolation of persisters by adding 200 μg/mL ciprofloxacin (for PAO1 and PDO300 strains) or 100 μg/mL ampicillin (for E. coli K12 strain). After adding the antibiotic for persister isolation, the subculture was incubated at 37° C., shaking at 200 rpm for 3.5 h.
To test the effects of GM-CSF on viability of persisters, the second tube was used to quantify the total number of viable cells and 1 mL of the washed persister cells was divided into 6 microcentrifuge tubes; 3 were control and the other 3 were GM-CSF treatment samples. In the treatment samples, GM-CSF was added to a concentration of 2.43 pg/mL (or 0.17 pM), the same as found in healthy human bodies. The control samples were supplemented with the same concentration of PBS and BSA as present in 2.43 pg/mL (or 0.17 pM) GM-CSF samples.
After incubating at 37° C. for 1 h with shaking at 200 rpm, the samples were plated on LB agar plates (15 g/L bacto agar) using drop plate method. The agar plates were then incubated for 24 h at 37° C. to count the total number of persister cells and understand the effect of 0.17 pM GM-CSF on the viability of persister cells.
To test the synergy with antibiotics, the above samples were then incubated at 37° C. for 3.5 h with shaking at 200 rpm after adding the selected antibiotic. After 3.5 h, the CFU of samples was quantified in the same way to understand if there is any synergy between GM-CSF and antibiotic. Similar treatments were performed on the total population in exponential phase as well. Apart from exponential phase, the synergistic effects of GM-CSF with antibiotics on total viable cells and persisters were also evaluated at stationary phase but PBS buffer (pH=7.4) was used in the experiments instead of 0.85% NaCl solution. Moreover, the 1 h and 3.5 h treatments were performed as co-treatments.

biofilm cells of PDO300 = experiment: Synergistic effects of GM-CSF, tobramycin and alginate lyase on biofilm cells of PDO300; conditions: 2.43 pg/mL GM-CSF with 200 μg/mL tobramycin, 3.5 h
Protocol: This Example describes an experiment, similar to the one described in Example 5 with respect to the planktonic cells of PDO300, which was performed on the biofilm cells of PDO300.
In brief, after preparing an overnight culture, it was subcultured to an OD600 of 0.01 in a total volume of 20 mL M63 medium with 316L stainless steel coupons (1.75 cm×1 cm). The biofilm was grown for 24 h at 37° C. After incubation, the coupons were washed by gently dipping in 0.85% NaCl buffer twice using tweezers and then placed in new empty petri dishes.
To test the synergistic effects of GM-CSF (2.43 pg/mL), tobramycin (200 μg/mL) and alginate lyase (0.5 mg/mL), a total of 8 coupons were included. These 8 coupons were placed in 8 microcentrifuge tubes with 2 mL of 0.85% NaCl buffer. There were 4 treatments samples, with 2 coupons for each treatment (i) Control (ii) […] Tobramycin (iii) 200 μg/mL Tobramycin and 2.43 pg/mL GM-CSF and (iv) 200 μg/mL Tobramycin, 2.43 pg/mL GM-CSF and 0.5 mg/mL Alginate lyase. […]
After incubation, each coupon was gently washed with 0.85% NaCl buffer and placed in a test tube with 2 mL of 0.85% NaCl buffer. […] The CFU was counted after incubation at 37° C. for 24 h to quantify the total number of viable cells. The synergistic effects of GM-CSF, tobramycin and alginate lyase were quantified based on CFU data.

[1] = 2.43 pg/ml GM-CSF in the presence of 50 μg/mL ciprofloxacin
[2] = 2.43 pg/ml GM-CSF in the presence of 50 μg/mL tetracycline
[3] = 2.43 pg/ml GM-CSF in the presence of 50 μg/mL tobramycin
[4] = 2.43 pg/ml GM-CSF in the presence of 200 μg/mL gentamicin

GM-CSF: granulocyte macrophage-colony stimulating factor, a cytokine secreted by macrophages; recombinant human GM-CSF (R&D systems) in binding tests
% change in avg. CFU/mL by GM-CSF (compared to GM-CSF free control) (P. aeruginosa PAO1; persisters, 1.7 pM GM-CSF, 200 μg/mL ciprofloxacin): −53.8 ± 16.1% | % change in avg. CFU/mL by GM-CSF (compared to GM-CSF free control) (P. aeruginosa PAO1; persisters, 1.7 pM GM-CSF, 200 μg/mL gentamicin): −12.7 ± 8.8% | % change in avg. CFU/mL by GM-CSF (compared to GM-CSF free control) (P. aeruginosa PAO1; persisters, 1.7 pM GM-CSF, 200 μg/mL tobramycin): −82.7 ± 2.3% | % change in avg. CFU/mL by GM-CSF (compared to GM-CSF free control) (P. aeruginosa PAO1; persisters, 17 pM GM-CSF, 200 μg/mL ciprofloxacin): −74.0 ± 2.9% | % change in avg. CFU/mL by GM-CSF (compared to GM-CSF free control) (P. aeruginosa PAO1; persisters, 17 pM GM-CSF, 200 μg/mL gentamicin): −25.4 ± 10.6% | % change in avg. CFU/mL by GM-CSF (compared to GM-CSF free control) (P. aeruginosa PAO1; persisters, 17 pM GM-CSF, 200 μg/mL tetracycline): −91.2 ± 3.2% | % change in avg. CFU/mL by GM-CSF (compared to GM-CSF free control) (P. aeruginosa PAO1; persisters, 17 pM GM-CSF, 200 μg/mL tobramycin): −86.5 ± 1.7% | % change in avg. CFU/mL by GM-CSF (compared to GM-CSF free control) (P. aeruginosa PAO1; total viable cells, 1.7 pM GM-CSF, 200 μg/mL ciprofloxacin): −19.5 ± 15.6% | % change in avg. CFU/mL by GM-CSF (compared to GM-CSF free control) (P. aeruginosa PAO1; total viable cells, 1.7 pM GM-CSF, 200 μg/mL gentamicin): −13.1 ± 7.4% | % change in avg. CFU/mL by GM-CSF (compared to GM-CSF free control) (P. aeruginosa PAO1; total viable cells, 1.7 pM GM-CSF, 200 μg/mL tobramycin): −9.4 ± 20.0% | % change in avg. CFU/mL by GM-CSF (compared to GM-CSF free control) (P. aeruginosa PAO1; total viable cells, 17 pM GM-CSF, 200 μg/mL ciprofloxacin): −10.3 ± 21.5% | % change in avg. CFU/mL by GM-CSF (compared to GM-CSF free control) (P. aeruginosa PAO1; total viable cells, 17 pM GM-CSF, 200 μg/mL gentamicin): −15.9 ± 7.4% | % change in avg. CFU/mL by GM-CSF (compared to GM-CSF free control) (P. aeruginosa PAO1; total viable cells, 17 pM GM-CSF, 200 μg/mL tetracycline): −1.0 ± 12.4% | % change in avg. CFU/mL by GM-CSF (compared to GM-CSF free control) (P. aeruginosa PAO1; total viable cells, 17 pM GM-CSF, 200 μg/mL tobramycin): +3.1 ± 18.6% | % change in avg. CFU/mL by GM-CSF (compared to GM-CSF free control) With 50 μg/mL Cip (P. aeruginosa PDO300; persisters): −22.2% | % change in avg. CFU/mL by GM-CSF (compared to GM-CSF free control) With 50 μg/mL Tet (P. aeruginosa PDO300; persisters): −46.2% | % change in avg. CFU/mL by GM-CSF (compared to GM-CSF free control) With 50 μg/mL Tob (P. aeruginosa PDO300; persisters): −80.0% | % change in avg. CFU/mL by GM-CSF (compared to GM-CSF free control) With 200 μg/mL Gen (P. aeruginosa PDO300; persisters): −50.0% | % change in avg. CFU/ml after adding factor + CIP (P. aeruginosa PDO300; persisters): −27.78% | % change in avg. CFU/ml after adding factor + TET (P. aeruginosa PDO300; persisters): −32.69% | % change in avg. CFU/ml after adding factor + TOB (P. aeruginosa PDO300; persisters): −75.86% | % change in avg. CFU/ml after adding factor + GEN (P. aeruginosa PDO300; persisters): −50.94% | average CFU/ml of persisters reduced by (P. aeruginosa PDO300; [1]): 27.78% | average CFU/ml of total viable cells reduced by (P. aeruginosa PDO300; [1]): 25.00% | average CFU/ml of persisters reduced by (P. aeruginosa PDO300; [2]): 32.69% | average CFU/ml of total viable cells reduced by (P. aeruginosa PDO300; [2]): 12.50% | average CFU/ml of persisters reduced by (P. aeruginosa PDO300; [3]): 75.86% | average CFU/ml of total viable cells reduced by (P. aeruginosa PDO300; [3]): 8.33% | average CFU/ml of persisters reduced by (P. aeruginosa PDO300; [4]): 50.94% | average CFU/ml of total viable cells reduced by (P. aeruginosa PDO300; [4]): 20.00% | % change in avg. CFU/mL by GM-CSF (compared to GM-CSF free control) With 50 μg/mL Cip (P. aeruginosa PDO300; total viable cells): −25.0% | % change in avg. CFU/mL by GM-CSF (compared to GM-CSF free control) With 50 μg/mL Tet (P. aeruginosa PDO300; total viable cells): −12.5% | % change in avg. CFU/mL by GM-CSF (compared to GM-CSF free control) With 50 μg/mL Tob (P. aeruginosa PDO300; total viable cells): −8.3% | % change in avg. CFU/mL by GM-CSF (compared to GM-CSF free control) With 200 μg/mL Gen (P. aeruginosa PDO300; total viable cells): −20.0% | % change in avg. CFU/ml after adding factor + CIP (P. aeruginosa PDO300; total viable cells): −25.00% | % change in avg. CFU/ml after adding factor + TET (P. aeruginosa PDO300; total viable cells): −12.50% | % change in avg. CFU/ml after adding factor + TOB (P. aeruginosa PDO300; total viable cells): −8.33% | % change in avg. CFU/ml after adding factor + GEN (P. aeruginosa PDO300; total viable cells): −20.00% | additional killing of biofilm cells compared to the 200 μg/mL tobramycin treatment alone (biofilm cells of PDO300): −24.7±5.3%
